# Measured values published in ChEMBL document CHEMBL1201862, “PubChem BioAssay data set” (2004).
#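 How tested: cells in 96-well plates exposed to compound for 48 hours at five concentrations. GI50 is the concentration that inhibits growth by half.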 Active and inactive are the calls of the source. Rule as the data show it: active = GI50 up to about 1.1 µM and inactive = higher.
# Columns and labels:
# Assay in all cases: inhibition of tumour cell growth, NCI panel, 48 h
# SK-MEL-28 = system: SK-MEL-28
# KM12 = system: KM12
# M14 = system: M14
# MOLT-4 = system: MOLT-4
# NCI-H522 = system: NCI-H522
# A498 = system: A498
# SNB-75 = system: SNB-75
# TK-10 = system: TK-10
# UO-31 = system: UO-31
# SK-MEL-2 = system: SK-MEL-2
# UACC-257 = system: UACC-257
# HCC 2998 = system: HCC 2998
# NCI-H460 = system: NCI-H460
# SK-MEL-5 = system: SK-MEL-5
# OVCAR-3 = system: OVCAR-3
# SF-295 = system: SF-295
# HOP-92 = system: HOP-92
SMILES,GI50 (SK-MEL-28),GI50 (KM12),GI50 (M14),GI50 (MOLT-4),GI50 (NCI-H522),GI50 (A498),GI50 (SNB-75),GI50 (TK-10),GI50 (UO-31),GI50 (SK-MEL-2),GI50 (UACC-257),GI50 (HCC 2998),GI50 (NCI-H460),GI50 (SK-MEL-5),GI50 (OVCAR-3),GI50 (SF-295),GI50 (HOP-92)
CC(=O)OCCOCNC(=S)N/N=C(\C)c1cccs1,> 100 µM (inactive),> 100 µM (inactive),> 100 µM (inactive),> 100 µM (inactive),> 100 µM (inactive),> 100 µM (inactive),> 100 µM (inactive),> 100 µM (inactive),> 100 µM (inactive),> 100 µM (inactive),> 100 µM (inactive),> 100 µM (inactive),> 100 µM (inactive),> 100 µM (inactive),> 100 µM (inactive),> 100 µM (inactive),–
N#Cc1c(-c2ccccc2)cc(-c2cccs2)c(C#N)c1N,–,> 100 µM (inactive),> 100 µM (inactive),> 100 µM (inactive),> 100 µM (inactive),> 100 µM (inactive),12.2 µM (inactive),> 100 µM (inactive),–,–,> 100 µM (inactive),> 100 µM (inactive),> 100 µM (inactive),> 100 µM (inactive),> 100 µM (inactive),> 100 µM (inactive),> 100 µM (inactive)
COc1cccc(N2C(=O)C3C4C=C5c6ccccc6N(c6ccccc6)C5(C3C2=O)[C@H]2C(=O)N(c3cccc(OC)c3)C(=O)[C@@H]42)c1 (stereo partly drawn),–,> 100 µM (inactive),> 100 µM (inactive),> 100 µM (inactive),–,> 100 µM (inactive),> 100 µM (inactive),> 100 µM (inactive),> 100 µM (inactive),> 100 µM (inactive),> 100 µM (inactive),–,> 100 µM (inactive),> 100 µM (inactive),> 100 µM (inactive),> 100 µM (inactive),> 100 µM (inactive)
NC(=O)/C=C/C(=O)O,> 5000 µM (inactive),> 5000 µM (inactive),> 5000 µM (inactive),> 5000 µM (inactive),> 5000 µM (inactive),–,> 5000 µM (inactive),> 5000 µM (inactive),> 5000 µM (inactive),> 5000 µM (inactive),> 5000 µM (inactive),–,> 5000 µM (inactive),> 5000 µM (inactive),–,> 5000 µM (inactive),> 5000 µM (inactive)
COc1cc2cccc(NC(=O)c3cc(OC)c(OC)c(OC)c3Br)c2cc1OC,16.1 µM (inactive),11.1 µM (inactive),11.3 µM (inactive),2.79 µM (inactive),11.8 µM (inactive),30.5 µM (inactive),26.9 µM (inactive),29.2 µM (inactive),5.9 µM (inactive),19.8 µM (inactive),3.85 µM (inactive),28.8 µM (inactive),12.5 µM (inactive),3.24 µM (inactive),13.4 µM (inactive),12.5 µM (inactive),–
CCOC(=O)C1Cc2c(ccc(OC)c2OC)C(=O)C1N (stereo not drawn),> 100 µM (inactive),> 100 µM (inactive),> 100 µM (inactive),91.4 µM (inactive),> 100 µM (inactive),–,> 100 µM (inactive),> 100 µM (inactive),> 100 µM (inactive),> 100 µM (inactive),> 100 µM (inactive),> 100 µM (inactive),> 100 µM (inactive),> 100 µM (inactive),93.1 µM (inactive),> 100 µM (inactive),> 100 µM (inactive)
CC(=O)CN(Cc1cc(C)c2c(c1)c1ccccc1n2Cc1ccccc1)S(=O)(=O)c1ccc(C)cc1,> 100 µM (inactive),> 100 µM (inactive),> 100 µM (inactive),> 100 µM (inactive),> 100 µM (inactive),–,> 100 µM (inactive),> 100 µM (inactive),57.7 µM (inactive),> 100 µM (inactive),> 100 µM (inactive),> 100 µM (inactive),–,> 100 µM (inactive),> 100 µM (inactive),> 100 µM (inactive),> 100 µM (inactive)
COCCOCOc1ccc(OCOCCOC)c2c1C(=O)c1ccccc1C2=O,> 100 µM (inactive),> 75.9 µM (inactive),> 100 µM (inactive),21.6 µM (inactive),–,68.7 µM (inactive),99.3 µM (inactive),> 73.6 µM (inactive),28.7 µM (inactive),> 74.1 µM (inactive),42.8 µM (inactive),61.7 µM (inactive),24.3 µM (inactive),51.8 µM (inactive),36.9 µM (inactive),> 100 µM (inactive),> 79.6 µM (inactive)
COC(=O)c1c2c(cc3c1CC1(Cc4cc5c(c(C(C)=O)c4C1)CCC5)C3)CCC2 (stereo not drawn),> 100 µM (inactive),> 100 µM (inactive),> 100 µM (inactive),38.2 µM (inactive),17 µM (inactive),–,24.6 µM (inactive),> 100 µM (inactive),38 µM (inactive),–,34.9 µM (inactive),> 100 µM (inactive),36.9 µM (inactive),31.8 µM (inactive),> 100 µM (inactive),28.8 µM (inactive),22.3 µM (inactive)
COC(=O)CCC(=O)N1C/C(=C\c2ccccc2)C(=O)/C(=C/c2ccccc2)C1,2.31 µM (inactive),0.807 µM (active),1.98 µM (inactive),1.83 µM (inactive),–,2.24 µM (inactive),2.29 µM (inactive),4.41 µM (inactive),2.04 µM (inactive),–,1.89 µM (inactive),1.67 µM (inactive),2.43 µM (inactive),2.2 µM (inactive),2.31 µM (inactive),2.31 µM (inactive),6.03 µM (inactive)
Cn1nc(-c2ccccc2NC(=O)C(F)(F)F)c(=O)n(C)c1=S,12 µM (inactive),25.7 µM (inactive),19.8 µM (inactive),22.6 µM (inactive),19.3 µM (inactive),–,5.89 µM (inactive),32.3 µM (inactive),21.7 µM (inactive),26.7 µM (inactive),–,46.1 µM (inactive),23.5 µM (inactive),> 100 µM (inactive),18.5 µM (inactive),58.2 µM (inactive),15.2 µM (inactive)
OC1C2CCC1C1C3C=CC(C3)C21 (stereo not drawn),> 100 µM (inactive),99.3 µM (inactive),> 100 µM (inactive),64.9 µM (inactive),50.9 µM (inactive),–,46.6 µM (inactive),> 100 µM (inactive),> 100 µM (inactive),32.8 µM (inactive),> 100 µM (inactive),–,> 100 µM (inactive),87.3 µM (inactive),> 100 µM (inactive),61.5 µM (inactive),34.4 µM (inactive)
Cc1ccccc1NC(=O)C(=O)CC(=O)c1c(C)[n+]([O-])c2ccccc2[n+]1[O-],> 100 µM (inactive),59.8 µM (inactive),> 100 µM (inactive),–,–,> 100 µM (inactive),40 µM (inactive),–,> 100 µM (inactive),> 100 µM (inactive),16 µM (inactive),> 100 µM (inactive),> 100 µM (inactive),–,> 100 µM (inactive),> 100 µM (inactive),–
